The text below walks through data of US20250074939A1, “SEA URCHIN-DERIVED PEPTIDE AND USE THEREOF” (NATIONAL MARINE BIODIVERSITY INSTITUTE OF KOREA, priority 2021, published 2025).

For test [1], the target named is T1, recombinant human vasopressin V1A receptor (Homo sapiens, UniProt P37288). As to the kind of experiment: cell-based or functional assay.
Test [2] concerns the target T2, recombinant human vasopressin V1B receptor (human) (UniProt P47901).
T2 sequence (looked up): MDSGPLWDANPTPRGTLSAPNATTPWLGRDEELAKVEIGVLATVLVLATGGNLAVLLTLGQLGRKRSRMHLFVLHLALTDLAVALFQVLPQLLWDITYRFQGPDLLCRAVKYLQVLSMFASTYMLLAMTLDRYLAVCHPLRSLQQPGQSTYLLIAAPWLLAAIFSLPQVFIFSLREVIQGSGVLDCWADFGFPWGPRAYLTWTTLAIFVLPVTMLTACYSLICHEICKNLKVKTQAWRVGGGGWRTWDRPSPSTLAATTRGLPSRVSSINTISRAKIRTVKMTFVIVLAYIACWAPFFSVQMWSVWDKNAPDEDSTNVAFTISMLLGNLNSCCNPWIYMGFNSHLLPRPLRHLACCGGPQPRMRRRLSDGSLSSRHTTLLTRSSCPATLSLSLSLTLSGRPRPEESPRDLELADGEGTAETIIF
Briefly: cell-based or functional assay.

In test [3] the target is T3, recombinant human oxytocin receptor (Homo sapiens, UniProt P30559). As to the kind of experiment: cell-based or functional assay.
T3 sequence (P30559 whole entry): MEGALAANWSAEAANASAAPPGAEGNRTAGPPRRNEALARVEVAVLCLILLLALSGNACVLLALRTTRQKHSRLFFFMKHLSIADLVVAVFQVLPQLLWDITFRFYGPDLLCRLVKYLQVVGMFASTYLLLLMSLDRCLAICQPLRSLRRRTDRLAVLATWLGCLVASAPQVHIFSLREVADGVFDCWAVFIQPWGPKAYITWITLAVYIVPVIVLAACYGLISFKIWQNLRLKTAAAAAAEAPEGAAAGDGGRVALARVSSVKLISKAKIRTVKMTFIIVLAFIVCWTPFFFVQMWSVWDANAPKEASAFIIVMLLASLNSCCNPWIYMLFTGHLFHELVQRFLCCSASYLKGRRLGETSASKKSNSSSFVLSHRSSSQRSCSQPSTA
In test [4] the target is T4, recombinant human vasopressin V2 receptor (Homo sapiens, UniProt P30518). As to the kind of experiment: cell-based or functional assay.
Test [5] addresses T4, recombinant human vasopressin V2 receptor. As to the kind of experiment: cell-based.
In test [6] the target is T3, recombinant human oxytocin receptor. Briefly: cell-based.
Test [7] addresses T5, recombinant human vasopressin V1B receptor (Homo sapiens, UniProt P47901). As to the kind of experiment: cell-based.
Test [8] deals with tube foot and esophageal tissues isolated from Echinus esculentus. The following applies: cited from earlier work.
In test [9] the target is T1, recombinant human vasopressin V1A receptor. As to the kind of experiment: cell-based.
Test [10] has as its target T5, recombinant human vasopressin V1B receptor.

For orientation: pEC50 means the negative decadic logarithm of the EC50, by convention in mol/L. For orientation: pIC50 means −log10 of the IC50, conventionally taken in molar units.

pEC50, pIC50: −log10 of the molar value. Where a SMILES comes first, the peptide text is derived from it. Bridges are numbered along the chain shown (N, C = ends).

T1 sequence (P37288 whole entry): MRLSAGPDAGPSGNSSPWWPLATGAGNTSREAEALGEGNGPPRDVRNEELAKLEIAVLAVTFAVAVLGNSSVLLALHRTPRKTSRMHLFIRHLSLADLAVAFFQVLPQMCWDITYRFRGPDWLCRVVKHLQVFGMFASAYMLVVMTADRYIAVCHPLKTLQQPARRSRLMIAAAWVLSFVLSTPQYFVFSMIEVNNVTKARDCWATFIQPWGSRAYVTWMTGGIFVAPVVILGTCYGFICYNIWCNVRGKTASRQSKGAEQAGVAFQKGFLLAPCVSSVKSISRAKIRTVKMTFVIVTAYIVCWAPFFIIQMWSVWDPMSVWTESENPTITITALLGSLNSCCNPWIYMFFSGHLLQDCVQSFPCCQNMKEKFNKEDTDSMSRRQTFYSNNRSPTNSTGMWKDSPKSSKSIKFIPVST

On to “Echinotocin (Strongylocentrotus purpuratus-derived peptide, SEQ ID NO: 1)”, for which the receptor inhibition: intracellular calcium response to 10 nM vasopressin (calcium dye fluorescence imaging) in test [1] is 1 µM. In test [2], the receptor activation: increase of intracellular calcium concentration (calcium dye fluorescence imaging), relative to 0.1 µM vasopressin came out at 49.1 nM. Moreover, the receptor inhibition: intracellular calcium response to 30 nM oxytocin (calcium dye fluorescence imaging) in test [3] was determined as 1.7 UM. In addition, the receptor activation: intracellular cAMP accumulation (HTRF), relative to 1 nM vasopressin in test [4] came out at 3.68 nM.

For `CC[C@H](C)[C@@H]1NC(=O)[C@H](Cc2ccccc2)NC(=O)[C@@H](N)CSSC[C@@H](C(=O)N2CCC[C@H]2C(=O)N[C@@H](CCCCN)C(=O)NCC(N)=O)NC(=O)[C@H](CC(N)=O)NC(=O)[C@H](CO)NC1=O` [Echinotocin] (H-CFISNCPKG-NH2; disulfide 1-6; N-terminus assumed), the pEC50 is 8.43 in test [5] and 7.31 in [7]. Besides, the pIC50 is 5.77 in [6] and 6.00 in test [9]. Moreover, in test [8], the “contraction of isolated tube foot and esophageal tissues” value was “effective in contracting tube foot and esophageal tissues”. In [10], the “receptor selectivity at appropriate concentration” value is “selectively activates only the V1B receptor and has little effect on other receptors”.
